Read-outs that look alike come from different tables or passages of the source. Bounds are passed on as bounds.

The source of these data is patent publication US8658801B2, “Pesticides containing a bicyclic bisamide structure” (Syngenta Crop Protection, LLC, priority 2006, dated 2014).

Series [1] relates to Plutella xylostella (Diamond Back Moth). Nature of the series: Example B14: comparison with state of the art, Plutella xylostella, larvicide, feeding/residual contact, preventive. Type of series: in vivo. As to the method:
Plutella xylostella (Diamond Back Moth)
(Larvicide, Feeding/Residual Contact Activity, Preventive)
24-well microtiter plate (MTP) with artificial diet is treated with test solutions by pipetting. After drying, the MTP's are infested with larvae (L2)(10-15 per well). After an incubation period of 5 days, samples are checked for larval mortality, antifeedant and growth regulation.

The next series deals with Heliothis virescens. Briefly: Example B15: comparison with state of the art, Heliothis virescens ovo-larvicide test. Type of series: in vivo. The note with it: for inhibition at 0.8 ppm / inhibition at 3.1 ppm / inhibition at 12.5 ppm / inhibition at 50 ppm: Heliothis virescens, 96 h, read-out: Ovo-larvicidal activity (%) after 4 days. As to the method: Activity Against Heliothis virescens (Ovo-Larvicide Test)
(§1) Eggs (0-24 h old) are placed in 24-well microtiter plate on artificial diet and treated with test solutions by pipetting. After an incubation period of 4 days, samples are checked for egg mortality, larval mortality, and growth regulation.

In series [2] the test system is Spodoptera littoralis (Egyptian Cotton Leafworm). Nature of the series: Example B1: activity against Spodoptera littoralis, larvicide, feeding/residual contact, preventive (cotton leaf discs). The note with it: foliar, 72 h, 3 days after treatment, L1 larvae. The series is classed as in vivo.
Series [3] concerns Heliothis virescens (Tobacco Budworm). Nature of the series: Example B2: activity against Heliothis virescens, ovo-larvicide, feeding/contact, curative. The series is classed as in vivo. As to conditions: 96 h, 4 days incubation, eggs 0-24 h old. Here is the method: Activity Against Heliothis virescens (Tobacco Budworm)
(Ovo-Larvicide, Feeding/Contact Activity, Curative)
as §1

For series [4], the system named is Plutella xylostella (Diamond Back Moth). Briefly: Example B3: Plutella xylostella, larvicide, feeding/residual contact, preventive (artificial diet MTP). The series is classed as in vivo. The note with it: 120 h, 5 days incubation, L2 larvae. An outline of the steps: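 Artificial diet in multiwell plates treated with test solution, dried, then infested with 10–15 L2 larvae per well. After 5 days, larval mortality, antifeedant effect and growth regulation were scored.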

Series [5] concerns Diabrotica balteata (Corn Root Worm). Briefly: Example B4: Diabrotica balteata, larvicide, feeding/residual contact, preventive. The series is classed as in vivo. The note with it: 120 h, 5 days incubation, L2 larvae. An outline of the steps: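 Artificial diet treated with test solution, dried, then infested with 6-10 L2 larvae per well. Larval mortality, antifeedant effect and growth regulation checked after 5 days of incubation.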

In series [6] the test system is Cydia pomonella (Codling Moth). Nature of the series: Example B8: activity against Cydia pomonella (paraffin-coated diet cubes). The series is classed as in vivo. The note with it: 336 h, 14 days incubation at 26° C.
The subject of series [7] is Frankliniella occidentalis (Western Flower Thrips). Nature of the series: Example B9: activity against Frankliniella occidentalis (bean leaf discs or bean plants). The note with it: foliar, 6 days (leaf discs) or 14 days (plants) after infestation. Type of series: in vivo. The method, boiled down: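 Bean leaf discs on agar or whole bean plants sprayed with diluted test solutions, then infested with a mixed thrips population after drying. Population reduction versus untreated assessed 6 days (discs) or 14 days (plants) after infestation.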

The subject of series [8] is Aphis craccivora (Pea Aphid). Nature of the series: Example B10: activity against Aphis craccivora, mixed population, contact/feeding. The note with it: 144 h, 6 days after treatment, spray (contact/feeding). The series is classed as in vivo. An excerpt: (§2) Activity Against Aphis craccivora (Pea Aphid)
(Mixed Population, Contact/Feeding)
6 days after treatment, samples are checked for mortality.

Series [9] relates to Aphis craccivora (Pea Aphid). Briefly: Example B11: activity against Aphis craccivora, mixed population, systemic/feeding. The series is classed as in vivo. As to conditions: 144 h, 6 days, roots in test solution (systemic).
From the text: as §2
(§3) (Mixed Population, Systemic/Feeding)
(§4) 6 days later, samples are checked for mortality.

For series [10], the system named is Aphis aossypii (Cotton Aphid). Briefly: Example B13: activity against cotton aphid, mixed population, systemic/feeding. Type of series: in vivo. As to conditions: 144 h, 6 days, roots in test solution (systemic).
From the text: Activity Against Aphis aossypii (Cotton Aphid)
as §3, §4

Series [11] relates to Thrips tabaci (Onion Thrips). Nature of the series: Example B7: activity against Thrips tabaci, mixed population, feeding/residual contact, preventive. The note with it: 144 h, read-out: activity.
Series [12] deals with Myzus persicae (Green Peach Aphid). Briefly: Example B6: activity against Myzus persicae, mixed population, systemic/feeding, curative (pea seedling roots). As to conditions: 144 h, read-out: activity.
Series [13] has the same test system. Nature of the series: Example B5: activity against Myzus persicae, mixed population, feeding/residual contact, preventive (sunflower leaf discs). The note with it: foliar, 144 h, read-out: activity.
Setting [14] is: especially at 12.5, 3.1 and 0.8 ppm.

In the case of `Cc1cc2cn[nH]c2c(C(=O)NC2(C3CC3)CC2)c1NC(=O)c1cc(C(F)F)nn1-c1ncccc1Cl`, the melting point lay in the range of 224 to 227 °C.
With `Cc1nc2ccccc2c(C(=O)NC(C)C)c1NC(=O)c1cc(C(F)(F)F)nn1-c1ncccc1Cl` [Compound T81.3, reference compound], the “Death rate (%) after 5 days” value in series [1] (0.8 ppm) turned out to be 0%. Moreover, the “Death rate (%) after 5 days” value in [1] (3.1 ppm) turned out to be 0%. Besides, the “Death rate (%) after 5 days” value in series [1] (12.5 ppm) turned out to be 60%. Also, the “Death rate (%) after 5 days” value in [1] (50 ppm) was determined as 100%. Further, in the series with Heliothis virescens, the inhibition at 0.8 ppm came out at 0%, the inhibition at 3.1 ppm came to 25%, the inhibition at 12.5 ppm came out at 65% and the inhibition at 50 ppm was 80%.
`C#Cc1cc2cn[nH]c2c(C(=O)NC(C)C)c1NC(=O)c1cc(C(F)(F)F)nn1-c1ncccc1Cl` [Example 34, 6-{[2-(3-chloro-pyridin-2-yl)-5-trifluoromethyl-2H-pyrazole-3-carbonyl]-amino}-5-ethynyl-1H-indazole-7-carboxylic acid isopropylamide] had a melting point of 226 to 229 °C.
On the same count and under the same terms, to `CNC(=O)c1c(NC(=O)c2cc(C(F)(F)F)nn2-c2ncccc2Cl)ccc2ncccc12` [Example 46, 6-{[2-(3-chloro-pyridin-2-yl)-5-trifluoromethyl-2H-pyrazole-3-carbonyl]-amino}-quinoline-5-carboxylic acid methylamide] belongs 210 to 211 °C.
Take `CC(C)NC(=O)c1c(NC(=O)c2cc(Cl)nn2-c2ncccc2Cl)c(Cl)cc2cn[nH]c12` [P.43]: the pest or weed control at 400 ppm in [2], in series [3], in [4], in series [5], in series [6] and in [7] was > 80% throughout. Besides, the pest or weed control at 400 ppm in [8], in [9], in [10], in series [11], in series [12] and in series [13] was > 80% each time.
Take `CC(C)NC(=O)c1c(NC(=O)c2cc(C(F)(F)F)nn2-c2ncccc2Cl)ccc2cccnc12` [P.73, 7-{[2-(3-chloro-pyridin-2-yl)-5-trifluoromethyl-2H-pyrazole-3-carbonyl]-amino}-quinoline-8-carboxylic acid isopropylamide]: the melting point is 225 to 226 °C.
As for `Cc1cc2ncccc2c(C(=O)NC(C)C)c1NC(=O)c1cc(C(F)(F)F)nn1-c1ncccc1Cl` [P.78, 6-{[2-(3-chloro-pyridin-2-yl)-5-trifluoromethyl-2H-pyrazole-3-carbonyl]-amino}-7-methyl-quinoline-5-carboxylic acid isopropylamide], the pest or weed control at 400 ppm in series [3], in series [4] and in series [5] was > 80% throughout. In addition, the “Death rate (%) after 5 days” value in series [1] (0.8 ppm) is given as 50%; in [1] (3.1 ppm), 100%; in series [1] (12.5 ppm), 100%; in series [1] (50 ppm) it was 100%. The “insecticidal action compared with the compound from the state of the art (T81.3)” value (in [1] (setting [14]); with Heliothis virescens (setting [14])) was “substantially better insecticidal action” throughout. Further, the inhibition at 0.8 ppm in the series with Heliothis virescens (0.8 ppm) stood at 50%. Further, the inhibition at 3.1 ppm with Heliothis virescens (3.1 ppm) is 50%. Besides, the inhibition at 12.5 ppm with Heliothis virescens (12.5 ppm) is 80%. For the same compound, the inhibition at 50 ppm with Heliothis virescens (50 ppm) came out at 80%.
`C#Cc1cc2cn[nH]c2c(C(=O)NC(C)C)c1NC(=O)c1cc(C(F)F)nn1-c1ncccc1Cl` [P.80] displayed a melting point of 233 to 236 °C.
Still for that read-out and setting: to `C#Cc1cc2cn[nH]c2c(C(=O)NC2(C3CC3)CC2)c1NC(=O)c1cc(C(F)F)nn1-c1ncccc1Cl` [P.81] belongs 218 to 221 °C.

By melting point is commonly meant the temperature of the solid-liquid transition.
